Reference: patent US20210261621A1, “Preparation of Dilipid Polymixins and Use Thereof as Antimicrobial Adjuvants” (priority 2018, published 2021)
“And” between values parts separate entries of the source, which are not always exact repeats. Identical values can stand only once. Like-named read-outs stand apart in the source and are kept apart here. Positions of bridges follow the written chain, without caps; N, C: chain ends. Non-standard residues stand in square brackets, D forms with d. Residues, ends and D or L forms follow the SMILES beside them. *: point of attachment. Acetyl(1-adamantyl) = O=C(CC12CC3CC(CC(C3)C1)C2)*; Dab = NCC[C@H](N)C(=O)O

Test system: P. aeruginosa PAO1
Set-up: MICDrug / MICDrug in combo / MIC of adjuvant in combo: unit not given beside the values

## CC(C)C[C@@H]1NC(=O)[C@@H](Cc2ccccc2)NC(=O)[C@H](CCN)NC(=O)[C@@H](NC(=O)[C@H](CCN)NC(=O)[C@@H](NC(=O)[C@H](CCNC(=O)CC23CC4CC(CC(C4)C2)C3)NC(=O)CC23CC4CC(CC(C4)C2)C3)[C@@H](C)O)CCNC(=O)[C@H]([C@@H](C)O)NC(=O)[C@H](CCN)NC(=O)[C@H](CCN)NC1=O [Compound 4, Diadamantane Acetic Acid (Di-Adamantyl) Polymyxin] ({Acetyl(1-adamantyl)}-[Dab](Acetyl(1-adamantyl))T[Dab][Dab][Dab][dF]L[Dab][Dab]T; lactam 4-C)
Adjuvant alone, one value per checkerboard, in µg/mL
  MIC of adjuvant alone (MIC1, MIC2, MIC3, MIC4, MIC5, MICPMBN): 16 and 8
Combination with Aztreonam
  Interpretation: Additive (An FIC index of ≤0.5, 0.5<x≤4, or >4 denotes for synergistic, additive or antagonistic interaction, respectively)
Combination with Ceftazidime
  Interpretation: Additive (An FIC index of ≤0.5, 0.5<x≤4, or >4 denotes for synergistic, additive or antagonistic interaction, respectively)
Combination with Chloramphenicol
  Interpretation: Additive (An FIC index of ≤0.5, 0.5<x≤4, or >4 denotes for synergistic, additive or antagonistic interaction, respectively)
Combination with Ciprofloxacin
  Interpretation: Additive (An FIC index of ≤0.5, 0.5<x≤4, or >4 denotes for synergistic, additive or antagonistic interaction, respectively)
Combination with Clindamycin
  Interpretation: Additive (An FIC index of ≤0.5, 0.5<x≤4, or >4 denotes for synergistic, additive or antagonistic interaction, respectively)
Combination with Doripenem
  Interpretation: Additive (An FIC index of ≤0.5, 0.5<x≤4, or >4 denotes for synergistic, additive or antagonistic interaction, respectively)
Combination with Doxycycline
  Interpretation: Additive (An FIC index of ≤0.5, 0.5<x≤4, or >4 denotes for synergistic, additive or antagonistic interaction, respectively)
Combination with Fosfomycin
  Interpretation: Additive (An FIC index of ≤0.5, 0.5<x≤4, or >4 denotes for synergistic, additive or antagonistic interaction, respectively)
Combination with Gentamicin
  Interpretation: Additive (An FIC index of ≤0.5, 0.5<x≤4, or >4 denotes for synergistic, additive or antagonistic interaction, respectively)
Combination with Linezolid
  Interpretation: Additive (An FIC index of ≤0.5, 0.5<x≤4, or >4 denotes for synergistic, additive or antagonistic interaction, respectively)
Combination with Meropenem
  Interpretation: Additive (An FIC index of ≤0.5, 0.5<x≤4, or >4 denotes for synergistic, additive or antagonistic interaction, respectively)
Combination with Minocycline
  Interpretation: Additive (An FIC index of ≤0.5, 0.5<x≤4, or >4 denotes for synergistic, additive or antagonistic interaction, respectively)
Combination with Moxifloxacin
  Interpretation: Additive (An FIC index of ≤0.5, 0.5<x≤4, or >4 denotes for synergistic, additive or antagonistic interaction, respectively)
Combination with Novobiocin
  Interpretation: Additive (An FIC index of ≤0.5, 0.5<x≤4, or >4 denotes for synergistic, additive or antagonistic interaction, respectively)
Combination with Piperacillin
  Interpretation: Additive (An FIC index of ≤0.5, 0.5<x≤4, or >4 denotes for synergistic, additive or antagonistic interaction, respectively)
Combination with Pleuromutilin
  Interpretation: Additive (An FIC index of ≤0.5, 0.5<x≤4, or >4 denotes for synergistic, additive or antagonistic interaction, respectively)
Combination with Rifampicin
  Interpretation: Additive (An FIC index of ≤0.5, 0.5<x≤4, or >4 denotes for synergistic, additive or antagonistic interaction, respectively)
Combination with Streptomycin
  Interpretation: Additive (An FIC index of ≤0.5, 0.5<x≤4, or >4 denotes for synergistic, additive or antagonistic interaction, respectively)
Combination with Tobramycin
  Interpretation: Additive (An FIC index of ≤0.5, 0.5<x≤4, or >4 denotes for synergistic, additive or antagonistic interaction, respectively)
Combination with Trimethoprim
  Interpretation: Additive (An FIC index of ≤0.5, 0.5<x≤4, or >4 denotes for synergistic, additive or antagonistic interaction, respectively)
Combination with Vancomycin
  Interpretation: Additive (An FIC index of ≤0.5, 0.5<x≤4, or >4 denotes for synergistic, additive or antagonistic interaction, respectively)
In combination with Aztreonam
  MIC of adjuvant in combo: (8)
In combination with Ceftazidime
  MIC of adjuvant in combo: (8)
In combination with Chloramphenicol
  MIC of adjuvant in combo: (4)
In combination with Ciprofloxacin
  MIC of adjuvant in combo: (0.25)
In combination with Clindamycin
  MIC of adjuvant in combo: (4)
In combination with Doripenem
  MIC of adjuvant in combo: (8)
In combination with Doxycycline
  MIC of adjuvant in combo: (4)
In combination with Fosfomycin
  MIC of adjuvant in combo: (4)
In combination with Gentamicin
  MIC of adjuvant in combo: (0.25)
In combination with Linezolid
  MIC of adjuvant in combo: (8)
In combination with Meropenem
  MIC of adjuvant in combo: (4)
In combination with Minocycline
  MIC of adjuvant in combo: (4)
In combination with Moxifloxacin
  MIC of adjuvant in combo: (4)
In combination with Novobiocin
  MIC of adjuvant in combo: (4)
In combination with Piperacillin
  MIC of adjuvant in combo: (0.25)
In combination with Pleuromutilin
  MIC of adjuvant in combo: (4)
In combination with Rifampicin
  MIC of adjuvant in combo: (4)
In combination with Streptomycin
  MIC of adjuvant in combo: (0.25)
In combination with Tobramycin
  MIC of adjuvant in combo: (0.25)
In combination with Trimethoprim
  MIC of adjuvant in combo: (8)
In combination with Vancomycin
  MIC of adjuvant in combo: (4)
Result in words
  adjuvant activity (potentiation of the panel of 21 antibiotics): did not enhance the activity of any antibiotics
